The term IC50 denotes the point on the concentration scale where inhibition reaches its midpoint. The term bioavailability denotes the share of a dose that reaches the circulation, judged against a reference dose that is usually intravenous. Low readings indicate little systemic uptake, high ones much systemic uptake. One may read the clearance as the rate of elimination divided by the concentration. High values mean a high capacity for elimination, low ones a low capacity for elimination. Broadly, the Papp A→B is how fast a substance crosses the layer from the apical side. What is called logD is the decadic logarithm of the distribution of all forms, ionised or not, between an organic phase and buffer at a given pH.

These results are taken from ChEMBL document CHEMBL3132759, “Design and synthesis of a novel series of cyclohexyloxy-pyridyl derivatives as inhibitors of diacylglycerol acyl transferase 1” (Medchemcomm, 2013).

In brackets after ≈: the same amount, converted by molar mass.

Data set [1] deals with T1, Diacylglycerol O-acyltransferase 1 (Homo sapiens, UniProt O75907).
T1 sequence (O75907 whole entry): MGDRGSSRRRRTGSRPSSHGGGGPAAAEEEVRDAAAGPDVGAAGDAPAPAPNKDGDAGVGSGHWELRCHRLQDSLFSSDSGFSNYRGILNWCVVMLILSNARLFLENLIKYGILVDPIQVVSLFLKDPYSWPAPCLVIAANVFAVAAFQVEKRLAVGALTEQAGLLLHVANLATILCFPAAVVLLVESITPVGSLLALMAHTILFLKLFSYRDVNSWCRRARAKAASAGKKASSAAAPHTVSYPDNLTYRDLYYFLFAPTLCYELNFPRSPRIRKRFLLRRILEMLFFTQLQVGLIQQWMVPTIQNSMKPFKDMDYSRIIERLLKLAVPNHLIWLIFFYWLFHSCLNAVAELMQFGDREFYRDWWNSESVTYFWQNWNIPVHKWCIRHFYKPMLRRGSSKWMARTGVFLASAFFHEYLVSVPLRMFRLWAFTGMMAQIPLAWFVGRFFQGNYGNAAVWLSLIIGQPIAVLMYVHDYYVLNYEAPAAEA
In words: Inhibition of DGAT1 in human HuTu80 cells assessed as reduction in triglyceride levels. It is filed as cell-based.

The target in data set [2] is T2, Diacylglycerol O-acyltransferase 1 (Rattus norvegicus, UniProt Q9ERM3).
T2 sequence (Q9ERM3 whole entry): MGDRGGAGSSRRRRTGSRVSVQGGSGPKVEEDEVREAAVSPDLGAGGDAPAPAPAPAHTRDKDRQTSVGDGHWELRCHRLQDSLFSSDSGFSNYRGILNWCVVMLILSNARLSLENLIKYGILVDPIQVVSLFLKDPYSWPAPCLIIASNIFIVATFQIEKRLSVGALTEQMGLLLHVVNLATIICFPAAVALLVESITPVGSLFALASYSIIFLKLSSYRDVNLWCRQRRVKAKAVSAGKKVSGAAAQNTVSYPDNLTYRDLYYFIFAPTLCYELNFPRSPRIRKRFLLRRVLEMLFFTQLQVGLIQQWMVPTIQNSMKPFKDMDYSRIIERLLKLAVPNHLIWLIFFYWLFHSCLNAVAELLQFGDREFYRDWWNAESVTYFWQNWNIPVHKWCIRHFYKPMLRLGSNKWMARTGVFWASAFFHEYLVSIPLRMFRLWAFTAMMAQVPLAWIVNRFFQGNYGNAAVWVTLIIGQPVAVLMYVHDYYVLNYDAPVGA
In words: Inhibition of DGAT1 in rat microsomes.

Data set [3] is filed under the species Rattus norvegicus. In words: Reduction in circulating plasma triglyceride levels in rat by oral lipid tolerance test by PK/PD analysis. It is filed as functional, organism-based.
The species named for data set [4] is Rattus norvegicus. Kind of data set: Reduction in circulating plasma triglyceride levels in rat by oral lipid tolerance test. The class given is functional, organism-based.
Data set [5] deals with Cytochrome P450 3A4 (Homo sapiens, UniProt P08684). In words: Inhibition of CYP3A4 (unknown origin). The class given is ADME.
Data set [6] concerns the target Cytochrome P450 2C19 (Homo sapiens, UniProt P33261). In words: Inhibition of CYP2C19 (unknown origin). It is filed as ADME.
Data set [7] has as its target Cytochrome P450 2D6 (Homo sapiens, UniProt P10635). In words: Inhibition of CYP2D6 (unknown origin). The class given is ADME.
The target in data set [8] is T3, Cytochrome P450 1A2 (Homo sapiens, UniProt P05177).
T3 sequence (P05177 whole entry): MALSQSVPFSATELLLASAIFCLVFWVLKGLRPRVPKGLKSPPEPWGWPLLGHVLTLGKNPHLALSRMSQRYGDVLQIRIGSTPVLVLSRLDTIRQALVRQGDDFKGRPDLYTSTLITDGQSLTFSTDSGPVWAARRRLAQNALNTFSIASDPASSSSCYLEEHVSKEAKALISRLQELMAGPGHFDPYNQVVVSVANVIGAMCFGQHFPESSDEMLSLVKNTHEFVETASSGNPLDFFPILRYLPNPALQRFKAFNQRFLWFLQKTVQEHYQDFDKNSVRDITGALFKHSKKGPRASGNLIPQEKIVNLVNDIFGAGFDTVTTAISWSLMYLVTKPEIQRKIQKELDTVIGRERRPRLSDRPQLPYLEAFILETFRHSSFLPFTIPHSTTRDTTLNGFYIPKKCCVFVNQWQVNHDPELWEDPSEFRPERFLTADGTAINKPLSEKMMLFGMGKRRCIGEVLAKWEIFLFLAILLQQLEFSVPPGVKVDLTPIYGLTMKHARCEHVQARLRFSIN
In words: Inhibition of CYP1A2 (unknown origin). It is filed as ADME.

Data set [9] deals with Voltage-gated inwardly rectifying potassium channel KCNH2 (Homo sapiens, UniProt Q12809). Kind of data set: Inhibition of human ERG.
In data set [10] the target is Cytochrome P450 2C9 (Homo sapiens, UniProt P11712). Kind of data set: Inhibition of CYP2C9 (unknown origin). The class given is ADME.
Data set [11] concerns the target T4, Diacylglycerol O-acyltransferase 2 (Homo sapiens, UniProt Q96PD7).
T4 sequence (Q96PD7 whole entry): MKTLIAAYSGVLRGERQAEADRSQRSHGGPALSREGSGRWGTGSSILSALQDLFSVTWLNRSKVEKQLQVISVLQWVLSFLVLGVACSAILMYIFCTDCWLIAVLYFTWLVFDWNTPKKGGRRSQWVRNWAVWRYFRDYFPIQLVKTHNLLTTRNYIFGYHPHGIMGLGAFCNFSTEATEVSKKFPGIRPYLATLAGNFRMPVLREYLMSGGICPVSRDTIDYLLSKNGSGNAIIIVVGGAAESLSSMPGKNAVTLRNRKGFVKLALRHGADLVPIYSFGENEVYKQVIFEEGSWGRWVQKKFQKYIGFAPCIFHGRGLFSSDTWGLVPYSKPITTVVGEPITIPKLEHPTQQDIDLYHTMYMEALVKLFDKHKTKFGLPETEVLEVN
In words: Inhibition of human DGAT2.

The nature of data set [12]: Oral bioavailability in dog. The following applies: in vivo. The class given is ADME, organism-based, Canis lupus familiaris.
The species named for data set [13] is Canis familiaris. In words: Unbound clearance in dog. The class given is ADME, organism-based, Canis lupus familiaris. To be noted: in vivo.
Data set [14] can be described thus: Clearance in dog. The following applies: in vivo. It is filed as ADME, organism-based, Canis lupus familiaris.
Data set [15] in a line: Oral bioavailability in rat. It is filed as ADME, organism-based. To be noted: in vivo.
The species named for data set [16] is Rattus norvegicus. Kind of data set: Unbound clearance in rat. It is filed as ADME, organism-based. To be noted: in vivo.
Data set [17] in a line: Clearance in rat. The following applies: in vivo. The class given is ADME, organism-based.
The subject of data set [18] is Hepatocyte. In words: Intrinsic clearance in human hepatocytes. It is filed as ADME, cell-based.
Data set [19] can be described thus: Apparent permeability in MDCK cells assessed as permeability from apical to basolateral side. It is filed as ADME, cell-based, Canis lupus familiaris. To be noted: dog.
Data set [20] can be described thus: Lipophilicity, logD of the compound. It is filed as physicochemical. The following applies: octanol/water.
The target of data set [21] is T5, Sterol O-acyltransferase 1 (Homo sapiens, UniProt P35610).
T5 sequence (P35610 whole entry): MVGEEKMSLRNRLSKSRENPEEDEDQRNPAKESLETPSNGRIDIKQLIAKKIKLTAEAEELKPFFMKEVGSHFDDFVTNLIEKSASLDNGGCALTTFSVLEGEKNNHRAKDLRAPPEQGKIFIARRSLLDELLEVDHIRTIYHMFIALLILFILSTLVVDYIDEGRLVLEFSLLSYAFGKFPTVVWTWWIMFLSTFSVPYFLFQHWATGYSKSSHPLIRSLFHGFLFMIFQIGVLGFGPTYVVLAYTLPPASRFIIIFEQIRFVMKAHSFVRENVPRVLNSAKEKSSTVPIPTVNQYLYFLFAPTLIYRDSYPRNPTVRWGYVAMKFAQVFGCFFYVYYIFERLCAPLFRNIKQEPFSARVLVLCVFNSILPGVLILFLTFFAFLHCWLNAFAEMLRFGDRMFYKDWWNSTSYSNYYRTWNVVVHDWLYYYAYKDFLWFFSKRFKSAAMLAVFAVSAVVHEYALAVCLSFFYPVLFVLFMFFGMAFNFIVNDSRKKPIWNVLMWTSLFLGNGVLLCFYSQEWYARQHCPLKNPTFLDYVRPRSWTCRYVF
Kind of data set: Inhibition of human ACAT1.

Data set [22] concerns the target T1, Diacylglycerol O-acyltransferase 1. Kind of data set: Inhibition of human DGAT1.
Data set [23] in a line: Thermodynamic solubility of the compound after 24 hrs at pH 7.4. To be noted: buffer, read-out: Therm_solubility. The class given is physicochemical.
The nature of data set [24]: Apparent permeability in human Caco2 cells assessed as permeability from apical to basolateral side. The class given is ADME, cell-based. To be noted: Caco-2. Background: Caco-2 monolayers are a common model of the intestinal barrier.

Chain of Cytochrome P450 3A4 (P08684 whole entry): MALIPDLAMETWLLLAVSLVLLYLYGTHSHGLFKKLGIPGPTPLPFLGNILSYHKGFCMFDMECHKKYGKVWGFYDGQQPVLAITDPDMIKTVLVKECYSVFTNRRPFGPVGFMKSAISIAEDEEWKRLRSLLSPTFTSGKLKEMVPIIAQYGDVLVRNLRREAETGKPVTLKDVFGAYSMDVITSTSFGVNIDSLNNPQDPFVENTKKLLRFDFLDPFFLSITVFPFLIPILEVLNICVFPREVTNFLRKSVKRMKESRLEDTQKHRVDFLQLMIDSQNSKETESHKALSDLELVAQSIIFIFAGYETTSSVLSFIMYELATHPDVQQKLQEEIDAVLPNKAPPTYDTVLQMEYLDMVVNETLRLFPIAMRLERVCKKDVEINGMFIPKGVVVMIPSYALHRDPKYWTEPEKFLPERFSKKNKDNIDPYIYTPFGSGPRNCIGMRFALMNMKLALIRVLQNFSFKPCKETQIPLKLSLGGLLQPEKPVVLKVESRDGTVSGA
Chain of Voltage-gated inwardly rectifying potassium channel KCNH2 (Q12809 whole entry): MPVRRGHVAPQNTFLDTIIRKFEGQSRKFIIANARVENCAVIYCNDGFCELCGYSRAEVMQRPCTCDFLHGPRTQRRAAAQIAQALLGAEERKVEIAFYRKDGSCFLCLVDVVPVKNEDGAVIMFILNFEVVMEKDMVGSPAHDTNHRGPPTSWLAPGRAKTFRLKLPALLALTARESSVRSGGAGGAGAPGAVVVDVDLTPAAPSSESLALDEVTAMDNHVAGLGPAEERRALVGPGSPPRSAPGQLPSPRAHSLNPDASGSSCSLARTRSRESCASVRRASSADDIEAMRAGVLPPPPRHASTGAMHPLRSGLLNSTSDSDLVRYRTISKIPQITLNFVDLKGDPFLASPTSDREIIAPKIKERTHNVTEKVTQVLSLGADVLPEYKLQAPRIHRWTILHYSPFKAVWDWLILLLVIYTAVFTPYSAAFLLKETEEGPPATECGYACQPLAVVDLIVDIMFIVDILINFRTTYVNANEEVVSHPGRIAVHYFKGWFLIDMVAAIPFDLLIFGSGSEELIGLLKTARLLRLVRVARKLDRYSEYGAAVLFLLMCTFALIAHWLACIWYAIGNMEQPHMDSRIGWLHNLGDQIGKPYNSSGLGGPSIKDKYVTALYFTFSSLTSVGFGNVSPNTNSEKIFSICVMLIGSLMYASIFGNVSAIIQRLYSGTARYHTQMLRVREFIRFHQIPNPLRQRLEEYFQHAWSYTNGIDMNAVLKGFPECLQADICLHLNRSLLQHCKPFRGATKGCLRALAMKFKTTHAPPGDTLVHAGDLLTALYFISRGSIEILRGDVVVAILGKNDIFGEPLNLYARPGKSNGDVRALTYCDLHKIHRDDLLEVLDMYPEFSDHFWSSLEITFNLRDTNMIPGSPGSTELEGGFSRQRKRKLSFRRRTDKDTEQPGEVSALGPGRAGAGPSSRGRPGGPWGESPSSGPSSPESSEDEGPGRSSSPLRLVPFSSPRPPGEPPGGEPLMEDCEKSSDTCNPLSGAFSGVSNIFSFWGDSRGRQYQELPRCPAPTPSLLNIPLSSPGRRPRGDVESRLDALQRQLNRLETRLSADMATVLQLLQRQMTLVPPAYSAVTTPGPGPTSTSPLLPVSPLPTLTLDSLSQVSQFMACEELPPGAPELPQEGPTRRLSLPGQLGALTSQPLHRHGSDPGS
Chain of Cytochrome P450 2C19 (P33261 whole entry): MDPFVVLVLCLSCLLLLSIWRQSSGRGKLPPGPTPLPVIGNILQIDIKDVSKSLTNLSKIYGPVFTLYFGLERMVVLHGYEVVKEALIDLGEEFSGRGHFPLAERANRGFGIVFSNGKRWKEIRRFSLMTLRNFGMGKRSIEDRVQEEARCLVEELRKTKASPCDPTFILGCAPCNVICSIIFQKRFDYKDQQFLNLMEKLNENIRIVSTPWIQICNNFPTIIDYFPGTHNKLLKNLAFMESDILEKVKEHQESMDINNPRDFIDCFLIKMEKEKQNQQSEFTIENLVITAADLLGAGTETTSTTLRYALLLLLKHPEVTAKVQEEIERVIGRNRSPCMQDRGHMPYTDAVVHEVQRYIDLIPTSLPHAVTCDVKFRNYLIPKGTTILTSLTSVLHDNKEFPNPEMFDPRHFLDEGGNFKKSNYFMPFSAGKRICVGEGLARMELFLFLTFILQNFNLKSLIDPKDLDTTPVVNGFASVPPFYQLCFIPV
Chain of Cytochrome P450 2D6 (P10635 whole entry): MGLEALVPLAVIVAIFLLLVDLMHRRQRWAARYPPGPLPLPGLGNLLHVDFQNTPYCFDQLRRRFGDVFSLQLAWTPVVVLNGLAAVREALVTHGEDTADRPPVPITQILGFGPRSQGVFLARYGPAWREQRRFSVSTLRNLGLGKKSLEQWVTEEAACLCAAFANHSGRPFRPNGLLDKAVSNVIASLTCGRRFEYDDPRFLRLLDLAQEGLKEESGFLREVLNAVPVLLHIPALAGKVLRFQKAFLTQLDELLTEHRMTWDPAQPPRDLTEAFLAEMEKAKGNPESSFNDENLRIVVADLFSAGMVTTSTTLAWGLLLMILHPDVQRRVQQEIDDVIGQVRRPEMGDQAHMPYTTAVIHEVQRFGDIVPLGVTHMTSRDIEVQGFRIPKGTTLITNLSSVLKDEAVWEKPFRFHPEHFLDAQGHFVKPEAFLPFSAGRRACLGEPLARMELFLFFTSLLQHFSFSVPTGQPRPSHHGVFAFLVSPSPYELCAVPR
Chain of Cytochrome P450 2C9 (P11712 whole entry): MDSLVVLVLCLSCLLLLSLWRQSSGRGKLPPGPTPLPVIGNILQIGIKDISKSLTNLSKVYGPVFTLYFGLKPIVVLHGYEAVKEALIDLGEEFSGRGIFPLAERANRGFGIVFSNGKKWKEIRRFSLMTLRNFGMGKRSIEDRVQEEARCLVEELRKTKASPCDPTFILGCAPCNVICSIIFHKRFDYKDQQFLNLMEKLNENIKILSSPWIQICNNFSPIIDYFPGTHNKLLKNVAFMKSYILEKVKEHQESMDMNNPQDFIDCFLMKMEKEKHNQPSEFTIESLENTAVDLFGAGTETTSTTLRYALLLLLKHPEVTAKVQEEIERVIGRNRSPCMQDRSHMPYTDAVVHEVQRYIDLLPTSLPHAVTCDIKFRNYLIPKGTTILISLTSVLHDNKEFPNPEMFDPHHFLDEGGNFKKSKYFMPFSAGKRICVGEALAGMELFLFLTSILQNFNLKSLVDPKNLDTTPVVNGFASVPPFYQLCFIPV

For the compound `O=C(O)C[C@H]1CC[C@@H](Oc2ccc(NC(=O)c3nnc(Nc4ccc(F)c(F)c4)o3)cn2)CC1`, the IC50 was 4 nM in data set [1]; 0.9 nM in [2]; 0.2 nM in data set [3]; > 10000 nM in [5]; > 10000 nM in data set [6]; > 10000 nM in data set [7]. Further, the 50% inhibitory concentration (IC50) in [8] is > 10000 nM; in data set [9], > 30000 nM; in [10] it was > 10000 nM; in [11], 28000 nM; in data set [21], 1500 nM; in data set [22] it was 7 nM. Besides, the inhibition entry in data set [4] was “Dose-dependent effect”. The values for the bioavailability in data set [12] and in data set [15] were 35% and 82%, respectively. Further, the CL free in [13] came out at 100 mL/min/kg; in [16], 230 mL/min/kg. The clearance in [14] came to 2.3 mL/min/kg; in data set [17] it was 0.7 mL/min/kg. For the same compound, the “Intrinsic clearance (CLint)” value in data set [18] is < 2 µL/min/mg. In data set [19], the Papp A→B was 5.1 ×10⁻⁶ cm/s. The compound also showed a pH-dependent lipophilicity (logD) in data set [20] of 2.2. Also, the solubility thermodynamic at 24 h in data set [23] was determined as 4 µM (≈ 1.89 µg/mL).

With `O=C(Nc1ccc(O[C@H]2CC[C@@H](C(=O)O)CC2)cc1F)c1nnc(Nc2cc(F)c(F)cc2F)o1`, the bioavailability in data set [12] is 76%; in data set [15] it was 85%. Moreover, the CL free in data set [13] is 1700 mL/min/kg; in [16], 200 mL/min/kg. Also, the results for the clearance in [14] and in data set [17] were 6.5 mL/min/kg and 0.4 mL/min/kg, respectively. The “Intrinsic clearance (CLint)” value in data set [18] was < 2 µL/min/mg. Also, in data set [24], the Papp A→B turned out to be 33 ×10⁻⁶ cm/s. The same compound registered a log distribution coefficient (logD) in data set [20] of 1.9. Further, the IC50 in [21] was 310 nM; in data set [22], 3 nM. In addition, the solubility thermodynamic at 24 h in data set [23] is 69 µM (≈ 34.1 µg/mL).
